Results published in patent publication US20090209633A1, “Treatment of Pain With Resiniferatoxin and Related Analogs” (priority 2006, published 2009).
Entries after “also recorded” stand apart in the source; their conditions may differ. Read-outs that look alike come from different tables or passages of the source.

Legend:
TRPV1 [1] = type: in vivo
Excerpt: Low concentrations of RTX (0.19 micrograms/kg) were introduced intrathecally.
FIG. 14 provides photographs of TRPV1 levels in paw skin with and without intrathecal RTX administration.

[2] = system: TRPV1-containing central terminals; assay: Paw withdrawal latency and nocifensive behavior after intrathecal RTX administration; type: in vivo
Excerpt: FIG. 14 provides photographs of TRPV1 levels in paw skin with and without intrathecal RTX administration. […] However, because PWL is a test for acute pain sensation, it is inappropriate for studying TRPV1 involvement, because TRPV1 mediates inflammatory pain.

DRG neurons = assay: Membrane depolarization and action potentials in DRG neurons (current clamp); type: cell-based, rat
Method: Primary DRG neuronal cultures were prepared from embryonic day 18 (E18) rat embryos. Adult pregnant rats were killed with an overdose of isoflurane. DRG were dissected and the cells were dissociated by triturating with a fire-polished glass pipette. Cells were cultured in Neurobasal medium (Life Technologies, Buffalo, N.Y., USA), supplemented with 10% fetal bovine serum (FBS), and grown on poly-D-lysine-coated glass coverslips. Cells were used from 5 to 15 days after plating. Small diameter (<30 μm) rounded neurons were selected for patch-clamp experiments. […] The Giga-seal patch-clamp technique was used to record whole-cell currents. For perforated-patch recordings, the bath solution contained (mM): sodium gluconate 140, KCl 2.5, Hepes 10, MgCl2 1 and ethylene glycol bis(2-aminoethyl ether)-N,N,N′N′-tetraacetic acid (EGTA) 1.5 (pH adjusted to 7.35 with NaOH), and the pipette solution contained (mM): sodium gluconate 130, NaCl 10, KCl 2.5, Hepes 10, MgCl2 1, EGTA 1.5 and 240 μg/ml^−1 amphotericin B (pH adjusted to 7.35 with NaOH). For current-clamp experiments the pipette solution contained (mM): potassium gluconate 130, NaCl 10, MgCl2 1, EGTA 0.2, K2ATP 1 and Hepes 10; pH adjusted to 7.35 with NaOH. Extracellular solution for current- and voltage-clamp experiments contained (mM): NaCl 140, KCl 4, MgCl2 1 and Hepes 10; pH adjusted to 7.35 with NaOH. Currents were recorded using a WPC 100 patch-clamp amplifier (E.S.F. Electronic, Goettingan, Germany). Data were filtered at 10 kHz, digitized (VR-10B, Instrutech Corp., Great Neck, N.Y., USA) and stored on videotapes or directly stored in the computer using a LabView interface. For analysis of whole-cell currents, data were filtered at 1 kHz (−3 db frequency with an 8-pole low-pass Bessel filter, Warner Instruments, LPF-8) and digitized at 2 kHz.
To attribute a physiological significance to the slow and irreversible action of RTX, we recorded membrane depolarization in current-clamp conditions. Action potentials in response to a current injection (10-100 pA) were recorded in order to confirm that the neurons were excitable (inset to FIGS. 9A and B). The average membrane potential was −57.1±1 mV (n=42).

TRPV1 [3] = molecular target: TRPV1 (Rattus norvegicus, UniProt O35433); conditions: Caterina et al. 1997, cited from earlier work
Chain of TRPV1 (Rattus norvegicus, UniProt O35433) (O35433 whole entry): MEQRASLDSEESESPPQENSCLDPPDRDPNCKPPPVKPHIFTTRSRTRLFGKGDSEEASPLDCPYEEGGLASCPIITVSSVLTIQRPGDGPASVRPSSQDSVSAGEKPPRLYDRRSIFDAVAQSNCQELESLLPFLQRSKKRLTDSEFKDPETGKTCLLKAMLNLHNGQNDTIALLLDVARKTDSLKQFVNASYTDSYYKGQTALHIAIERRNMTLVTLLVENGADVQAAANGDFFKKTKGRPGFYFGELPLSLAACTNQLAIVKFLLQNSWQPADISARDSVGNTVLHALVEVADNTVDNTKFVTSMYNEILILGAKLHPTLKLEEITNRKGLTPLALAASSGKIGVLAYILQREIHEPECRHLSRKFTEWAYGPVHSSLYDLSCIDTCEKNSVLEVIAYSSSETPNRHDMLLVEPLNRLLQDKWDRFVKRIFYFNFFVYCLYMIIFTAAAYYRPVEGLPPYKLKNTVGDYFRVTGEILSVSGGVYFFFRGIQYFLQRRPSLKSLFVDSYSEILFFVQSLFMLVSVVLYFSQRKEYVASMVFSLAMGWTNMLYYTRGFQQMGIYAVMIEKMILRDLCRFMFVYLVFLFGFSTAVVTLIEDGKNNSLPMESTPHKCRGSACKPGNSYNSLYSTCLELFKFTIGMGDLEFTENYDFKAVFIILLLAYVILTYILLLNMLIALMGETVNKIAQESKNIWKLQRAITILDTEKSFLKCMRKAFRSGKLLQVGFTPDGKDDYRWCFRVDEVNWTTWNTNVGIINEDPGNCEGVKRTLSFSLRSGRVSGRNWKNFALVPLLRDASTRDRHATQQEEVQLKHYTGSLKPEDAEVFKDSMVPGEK

vanilloid receptors [4] = molecular target: T1, vanilloid receptors (Rattus norvegicus, UniProt O35433); conditions: Acs et al. 1995; cited from earlier work
T1 sequence (O35433 whole entry): as above

vanilloid receptors [5] = molecular target: T1, vanilloid receptors; conditions: Acs et al. 1995; read-out: Kd, ability to induce Ca2+ uptake; cited from earlier work
native TRPV1 = molecular target: T2, native TRPV1 (Rattus norvegicus, UniProt O35433); conditions: capsaicin 1 μM, cell-attached, Premkumar et al. 2002, cited from earlier work
T2 construct: RTX-induced membrane currents on native TRPV1 in embryonic DRG neurons grown in culture; endogenous in cells; host or cells: primary rat E18 DRG neurons
T2 sequence (O35433 whole entry): as above

[6] = RTX 0.19 micrograms/kg intrathecal

C=C(C)[C@]12C[C@@H](C)[C@@]34O[C@](Cc5ccccc5)(O[C@@H]1[C@@H]3C=C(COC(=O)Cc1ccc(O)c(OC)c1)C[C@]1(O)C(=O)C(C)=C[C@@H]41)O2 [RTX, resiniferatoxin]
TRPV1 levels in DRG (TRPV1 [1]; [6]): maintenance; also recorded: remained constant | TRPV1 levels in spinal cord dorsal horn (DH) (TRPV1 [1]; [6]): reduction; also recorded: significantly reduced | effect on cell body or peripheral terminals (paw skin TRPV1) (TRPV1 [1]; RTX intrathecal): without affecting the cell body or peripheral terminals | nocifensive behavior to intraplantar injection of capsaicin [2]: dramatic decrease; also recorded: significantly reduced | paw withdrawal latency (PWL) to radiant heat [2]: no change; also recorded: not affected | duration of guarding ([2]; intraplantar capsaicin): decreased significantly | number of guarding ([2]; intraplantar capsaicin): decreased significantly | membrane depolarization (DRG neurons; RTX 3 pM): 10.6±1.6 mV | number of action potentials (DRG neurons; RTX 3 pM): 16.6±8.3 | number of action potentials (DRG neurons; RTX 10 pM): 24.6±6.9 | membrane depolarization (DRG neurons; RTX 10 nM): 32.2±5.1 mV | number of action potentials (DRG neurons; RTX 10 nM): 24.5±8.6 | membrane depolarization (DRG neurons; RTX 1 μM): 52±2 mV | number of action potentials (DRG neurons; RTX 1 μM): 14.6±4.6 | membrane depolarization (DRG neurons; RTX 10 μM (so in the source)): 14.1±1.5 mV | membrane depolarization (DRG neurons; RTX 100 μM (so in the source)): 16.3±3 mV | number of action potentials (DRG neurons; RTX ˜100 pM): 77.8±11.8 | fold more potent than capsaicin to activate TRPV1 current (TRPV1 [3]): 20 fold | EC50 (TRPV1 [3]; read-out: EC50 to activate TRPV1 current): 39 nM | fold more potent for binding as compared to Ca2+ uptake (vanilloid receptors [4]): 25 fold | Ca2+ uptake potency (half-maximal concentration) (vanilloid receptors [5]): 1 nM

COc1cc(CNC(=O)CCCC/C=C/C(C)C)ccc1O [capsaicin]
membrane depolarization (DRG neurons; capsaicin 30 nM): 13.3±3.5 mV | number of action potentials (DRG neurons; capsaicin 30 nM): 54.2±10.5 | maximal Po (native TRPV1; +60 mV): 0.4±0.08 | maximal Po (native TRPV1; −60 mV): 0.8±0.04
